# Patent US12617777B2, “GPR84 antagonists and uses thereof” (Liminal BioSciences Limited, priority 2021, dated 2026)
# Target: T1, human GPR84 receptor (Homo sapiens, UniProt Q9NQS5)
# T1 construct: host or cells: HEK293, transient transfection
# Assay: Gαi biosensor BRET assay in HEK293 cells (antagonism of ZQ-16)
# Assay type: cell-based
# Conditions: for inhibition at 10 µM: HEK293, single concentration 10 μM (designated F); for IC50: HEK293 cells, antagonism of 200 nmol/L ZQ-16; for inhibition at 25 µM: HEK293, single concentration 25 μM (designated I); for inhibition at 2 µM: HEK293, single concentration 2 μM (designated A)
# Excerpt: Background—The following assays can be used for determination of GPR84 activation in living HEK293 cells. The Gai BRET biosensor (Gagnon et al., 2018; Gales et al., 2006. Nat StructMol Biol. 13, 778-86; Saulieres et al., 2012. Nat Chem Biol. 8, 622-30) allows to directly monitor GPR84-mediated activation of Gai. The Gai biosensor consists of a Rluc8-tagged Gαi2 subunit, a GFP10-tagged Gγ2 subunit, and an untagged Gβ1. Agonist stimulation and GPR84 activation triggers a physical separation between the RLuc8-Gαi donor and the GFP10-Gγ2 acceptor, resulting in a decrease in BRET signal whose amplitude is correlated to ligand efficacy (Gales et al., 2006). Moreover, signaling functions of GPCRs are tightly regulated by endocytosis, the targeting of receptors to endosomes and their sorting to lysosomes or recycling to the plasma membrane. The early endosomes (EEs) trafficking assay (Namkung et al., 2016. Nat Commun. 7, 12178) uses Rluc8-tagged GPR84 and Renilla GFP (rGFP) attached to the FYVE domain from human endofin/zinc finger FYVE domain-containing protein 16, which binds phosphatidylinositol 3-phosphate in EEs. Agonist stimulation of GPR84-Rluc8 leads to trafficking of the receptor to EEs, and ensuing increase of the donor concentration relative to the rGFP-FYVE acceptor anchored in the same cellular compartment, and thus results in an increase in BRET signal.
# Plasmids—The cDNA clones for human GPR84 receptor, human Gai2, Gp1, and Gy2 were obtained from the cDNA Resource Center (www.cdna.org). GFP10 (F64L, S147P, S202F and H231L variant of Aequorea victoria Green Fluorescent Protein) gBlocks gene fragments (Integrated DNA Technologies, IA) and linker were inserted in frame at the N-terminus of human Gγ2. Rluc8 (A55T, C124A, S130A, K136R, A143M, M185V, M253L, and S287L variant of the Renilla renformis luciferase) gBlocks gene fragment was inserted with linkers in frame in between residues 91 and 92 of Gai2 or at the C-terminus of GPR84. The FYVE domain from human endofin (residues Q739 to K806) attached in frame at the C terminus of a humanized Renilla GFP (rGFP), were synthesized as gBlocks gene fragments.
# Bioluminescence Resonance Energy Transfer (BRET) Measurement—HEK293 cells were transfected with GPR84-Rluc8 and rGFP-FYVE for the EEs trafficking biosensor or with GPR84, Gαi2-Rluc8, GFP10-Gγ2, and Gβ1 for the Gαi biosensor. The following day, transiently transfected cells were seeded in 96-well white clear bottom microplates coated with poly-D-lysine and left in culture for 24 hours. Cells were washed once with Tyrode's buffer (140 mmol/L NaCl, 1 mmol/L CaCl2, 2.7 mmol/L KCl, 0.49 mmol/L MgCl2, 0.37 mmol/L NaH2PO4, 5.6 mmol/L glucose, 12 mmol/L NaHCO3, and 25 mmol/L HEPES, pH 7.5) before performing assays in Tyrode's buffer. Test compounds were incubated with cells for 5 (Gαi) or 15 (EEs) minutes at 37° C. before addition of 200 nmol/L of the GPR84 agonist ZQ-16 (2-(Hexylthio)-6-hydroxy-4(3H)-pyrimidinone) for 5 minutes at room temperature (Gαi) or 30 minutes at 37° C. (EEs). The Rluc8 substrate coelenterazine 400A (Prolume, Lakeside, AZ) was added at a final concentration of 5 μmol/L and BRET readings were collected using an Infinite M1000 microplate reader (Tecan, Morrisville, NC). BRET^2 readings between Rluc8 and GFP10 or rGFP were collected by sequential integration of the signals detected in the 370 to 450 nm (Rluc8) and 510 to 540 nm (GFP10, rGFP) windows. The BRET signal was calculated as the ratio of light emitted by acceptor (GFP10, rGFP) over the light emitted by donor (Rluc8). The values were corrected to net BRET by subtracting the background BRET signal obtained in cells transfected with Rluc8 constructs alone. Ligand-promoted net BRET values were calculated by subtracting vehicle-induced net BRET from ligand-induced net BRET.
# T1 sequence (Q9NQS5 whole entry): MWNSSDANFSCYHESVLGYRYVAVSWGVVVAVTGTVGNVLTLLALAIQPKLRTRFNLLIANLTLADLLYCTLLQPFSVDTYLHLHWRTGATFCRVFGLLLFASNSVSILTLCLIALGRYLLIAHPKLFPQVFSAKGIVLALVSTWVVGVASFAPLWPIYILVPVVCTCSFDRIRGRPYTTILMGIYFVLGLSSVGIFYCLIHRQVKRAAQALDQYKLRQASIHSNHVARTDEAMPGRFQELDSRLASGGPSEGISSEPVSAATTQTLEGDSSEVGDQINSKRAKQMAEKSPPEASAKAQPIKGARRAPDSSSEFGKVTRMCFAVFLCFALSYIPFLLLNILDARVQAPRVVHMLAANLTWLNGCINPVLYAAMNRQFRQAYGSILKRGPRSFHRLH
SMILES,inhibition at 10 µM,IC50,further results
COC(C)Cn1cc(-c2ccc(C#CC3CC3)cc2C)nn1 (stereo not shown) [Compound I-132],25 to 50%,–,–
Cc1cc(N2CCN(Cc3ccccn3)CC2)cnc1-c1cn(CC2OCC(C)(C)CO2)nn1 [Compound I-597],50 to 75%,–,–
COC(C)(c1cn(CC2CCCCO2)nn1)c1cc(C#CC2CC2)ccc1C (stereo not shown) [Compound I-680],50 to 75%,–,–
CN(C)c1cc(C#CC2CC2)ccc1-c1cn(CC2CCOCC2)nn1 [Compound I-200],25 to 50%,–,–
Cc1cc(C#CC2CC2)cnc1-c1cn(CC2OCC(c3ccccc3)CO2)nn1 (stereo not shown) [Compound I-705],≤ 25%,–,–
CN(C)c1cc(N2CC(C)(C)C2)ccc1-c1cn(CC2CCCCO2)nn1 (stereo not shown) [Compound I-202],> 75%,1000 to 3000 nM,–
Cc1cc(C#CC2CC2)cnc1-c1cn(CC2CCOCC2)nn1 [Compound I-196],≤ 25%,–,–
C(#CC1CC1)c1ccc(-n2cc(CC3CCOCC3)nn2)cc1 [Compound I-294],–,–,inhibition at 25 µM: ≤ 25%
Cc1cc(C#CC2CC2)ccc1-c1cn(CC2CC(C)(C)CCO2)nn1 (stereo not shown) [Compound I-599],≤ 25%,–,–
Cc1cc(C#CC2CC2)ccc1-c1cn(CC2COCCN2C)nn1 (stereo not shown) [Compound I-527],≤ 25%,–,–
COCC#Cc1ccc(-c2cn(CC3OCC(C)(C)CO3)nn2)c(N(C)C)c1 [Compound I-829],> 75%,≤ 300 nM,–
Cc1cc(C#CCNc2ccccc2)cnc1-c1cn(C[C@H]2CCCCO2)nn1 [Compound I-394],> 75%,–,–
CC(C)Oc1cc(C#CC2CC2)cnc1-c1cn(C[C@H]2CCCCO2)nn1 [Compound I-659],> 75%,≤ 300 nM,–
Cc1cc(N2CC(N(C)S(C)(=O)=O)C2)ccc1-c1cn(CC2CCCCO2)nn1 (stereo not shown) [Compound I-487],≤ 25%,–,–
CCc1cc(C#CCOC)ccc1-c1cn(CC2OCC(C)(C)CO2)nn1 [Compound I-770],–,≤ 300 nM,–
"Cc1ccc(C#CC2CC2)cc1[S+]([O-])c1cn(CC2OCC(C)(C)CO2)nn1 (racemic) [Compound I-782, (RS)-4-((5-(cyclopropylethynyl)-2-methylphenyl)sulfinyl)-1-((5,5-dimethyl-1,3-dioxan-2-yl)methyl)-1H-1,2,3-triazole]",> 75%,–,–
"Cc1ccc(C#CC2CC2)cc1Cc1cn(CC2OCC(C)(C)CO2)nn1 [Compound I-669, 4-(5-(cyclopropylethynyl)-2-methylbenzyl)-1-((5,5-dimethyl-1,3-dioxan-2-yl)methyl)-1H-1,2,3-triazole]",–,≤ 300 nM,inhibition at 2 µM: > 75%
"Cc1cc(C#CC2CC2)ccc1-c1cn(CC2OCCCC2(C)C)nn1 (stereo not shown) [Compound I-522, 4-(4-(cyclopropylethynyl)-2-methylphenyl)-1-((3,3-dimethyltetrahydro-2H-pyran-2-yl)methyl)-1H-1,2,3-triazole]",50 to 75%,–,–
Cc1cc(C#CC2CC2)nnc1-c1cn(CC2CCCCO2)nn1 (stereo not shown) [Compound I-433],≤ 25%,–,–
CC(C)Oc1cc(N2CC(C)(CO)C2)ccc1-c1cn(CC2OCC(C)(C)CO2)nn1 [Compound I-678],–,300 to 1000 nM,inhibition at 2 µM: > 75%
Cc1cc(N2CC3(CN(Cc4ccccc4)C3)C2)ccc1-c1cn(CC2CCCCO2)nn1 (stereo not shown) [Compound I-146],25 to 50%,–,–
CC(C)c1cc(C#CCN2CC(C)(C)C2)cnc1-c1cn(CC2OCC(C)(C)CO2)nn1 [Compound I-727],–,300 to 1000 nM,inhibition at 2 µM: > 75%
Cc1cc(N2CC(C)(CO)C2)ccc1-c1cn(CC2CCCCO2)nn1 (stereo not shown) [Compound I-263],> 75%,–,–
CCc1cc(C#CCNC(=O)OC)ccc1-c1cn(CC2CCCCO2)nn1 (stereo not shown) [Compound I-586],> 75%,1000 to 3000 nM,–
Cc1cc(N2CCN(Cc3ccccn3)CC2=O)ccc1-c1cn(CC2OCC(C)(C)CO2)nn1 [Compound I-751],25 to 50%,–,–

SMILES,inhibition at 10 µM,IC50,further results
COC(c1cn(CC2OCC(F)(F)CO2)nn1)c1cc(C#CC2CC2)c(F)cc1C (stereo not shown) [Compound I-723],> 75%,–,–
CCc1cc(C#CCN(C)C2CC2)ccc1-c1cn(CC2OCC(C)(C)CO2)nn1 [Compound I-857],≤ 25%,–,–
CCc1cc(C#CC2CC2)cnc1-c1cn(CC2CCCCO2)nn1 (stereo not shown) [Compound I-220],> 75%,300 to 1000 nM,–
Cc1cc(C#CC2CC2)ccc1-c1cn(C[C@H]2CCCCO2)nn1 [Compound I-175],–,1000 to 3000 nM,"inhibition at 5 µM (HEK293, single concentration 5 μM (designated D)): 50 to 75%"
Cc1cc(C#CC2CC2)ccc1-c1cnn(CC2CCCCO2)c1 (stereo not shown) [Compound I-324],–,–,inhibition at 25 µM: ≤ 25%
CC1(C)COC(Cn2cc(-c3ncc(C#CCN4CC(C)(C)C4)cc3OC3CC3)nn2)OC1 [Compound I-709],–,≤ 300 nM,inhibition at 2 µM: > 75%
Cc1cc(N2CC(C)(CO)C2)c(F)cc1-c1cn(CC2CCCCO2)nn1 (stereo not shown) [Compound I-730],> 75%,300 to 1000 nM,–
Cc1cc(OCc2ccccn2)ccc1-c1cn(CC2CCCCO2)nn1 (stereo not shown) [Compound I-54],–,300 to 1000 nM,inhibition at 25 µM: 50 to 75%
Cc1ccc(Cl)cc1N(C)c1cn(CC2OCC3(CC3)CO2)nn1 [Compound I-844],50 to 75%,–,–
Cc1ccc(C#CC2CC2)cc1Cc1cn(CC2CC(C)(C)CO2)nn1 (stereo not shown) [Compound I-643],–,–,inhibition at 2 µM: 50 to 75%
CC1(C)COC(Cn2cc(-c3ccc(N4CCN(Cc5ccccn5)CC4)cc3CC(F)(F)F)nn2)OC1 [Compound I-747],–,≤ 300 nM,inhibition at 2 µM: > 75%
CCc1cc(C#CCN2CC(C)(C)C2)cnc1-c1cn(CC2OCC(C)(C)CO2)nn1 [Compound I-666],–,≤ 300 nM,inhibition at 2 µM: > 75%
C(#CC1CC1)c1ccc(-c2cn(C[C@H]3COCCO3)nn2)cc1 [Compound I-22],–,–,inhibition at 25 µM: ≤ 25%
Cc1cc(C#CCNC(=O)OCc2ccccc2)ccc1-c1cn(CC2CCCCO2)nn1 (stereo not shown) [Compound I-608],> 75%,300 to 1000 nM,–
Cc1cc(N2CCCC(CO)C2)ccc1-c1cn(CC2CCCCO2)nn1 (stereo not shown) [Compound I-446],25 to 50%,–,–
CC(c1cccc(N2CC(C)(C)C2)c1)c1cn(CC2CCCCO2)nn1 (stereo not shown) [Compound I-536],≤ 25%,–,–
COc1ccc(C)c(N(C)c2cn(CC3OCC(C)(C)CO3)nn2)c1 [Compound I-814],≤ 25%,–,–
CC(C)Oc1cc(N2CC(C)(CO)C2)cnc1-c1cn(CC2OCC(C)(C)CO2)nn1 [Compound I-694],> 75%,–,–
FC(F)(F)COc1ccc(-c2cn(CC3CCCCO3)nn2)cc1 (stereo not shown) [Compound I-51],–,–,inhibition at 25 µM: ≤ 25%
C(#CC1CC1)c1ccc(-c2cn(C[C@H]3CCCCO3)nn2)cc1 [Compound I-24],–,> 3000 nM,inhibition at 25 µM: > 75%
Cc1cc(N2CCN(Cc3ccccn3)CC2)ccc1-c1cn(CC2OCC3(CC3)CO2)cn1 [Compound I-795],25 to 50%,≤ 300 nM,–
Cc1cc(C#CC2CC2)ccc1-c1cn(CC2CCCCS2)nn1 (stereo not shown) [Compound I-258],50 to 75%,–,–
OCC#Cc1ccc(-c2cn(CC3OCC4(CCC4)O3)nn2)c(CC(F)(F)F)c1 (stereo not shown) [Compound I-808],–,300 to 1000 nM,inhibition at 2 µM: > 75%
Cc1cc(C#CCNc2ccccc2)ccc1-c1cn(CCOc2ccccn2)nn1 [Compound I-135],≤ 25%,–,–
